Data on 8 molecules can be found in patent US20260184663A1, “INDENE COMPOUNDS, PHARMACEUTICAL COMPOSITIONS THEREOF, AND THEIR THERAPEUTIC APPLICATIONS” (NucMito Pharmaceuticals co. Ltd., priority 2022, published 2026).

What all share (type): cell-based
One assay concerns SW480 (colon cancer). The experiment in a line: Antiproliferative activity (CCK-8 cell viability), SW480. To be noted: Homo sapiens, 72 h, read-out: Antiproliferative activity in cancerous cells, SW480 (inhibition of cell growth); for inhibition at 3.3 µM: Compound concentration: 3.3 μM; for inhibition at 10 µM: Compound concentration: 10 μM. An outline of the steps: (§1)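 Cells grown in DMEM (HepG2, SW480), MEM (HeLa) or F-12K (A549), each with 10% FBS, then exposed to compound at 3.3, 10 or 30 μM for 72 h at 37 °C. CCK-8 absorbance at 450 nm; viability expressed as percent of DMSO-treated cells, graded as growth inhibition bands.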

The test system of assay [1] is B16F10 (malignant melanoma). The assay is described as follows: Antiproliferative activity (CCK-8 cell viability), B16F10. To be noted: Mus musculus, 72 h, read-out: Antiproliferative activity in cancerous cells, B16F10 (inhibition of cell growth); for inhibition at 3.3 µM: B16-F10, Compound concentration: 3.3 μM; for inhibition at 10 µM: B16-F10, Compound concentration: 10 μM. A digest of the protocol:
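B16F10 melanoma cells grown in DMEM with 10% FBS were plated in 96-well plates at 2,000-5,000 cells/well. After attachment they were exposed to compound in medium for 72 h at 37° C. CCK-8 solution (10 μL) was then added, and after 4 h at 37° C absorbance was read at 450 nm.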

The test system of another assay is HeLa (cervical cancer). The experiment in a line: Antiproliferative activity (CCK-8 cell viability), HeLa. To be noted: Homo sapiens, 72 h, read-out: Antiproliferative activity in cancerous cells, HELA (inhibition of cell growth); for inhibition at 3.3 µM: Compound concentration: 3.3 μM; for inhibition at 10 µM: Compound concentration: 10 μM. An outline of the steps:
as §1

The test system of assay [2] is A549 (lung adenocarcinoma). The assay is described as follows: Antiproliferative activity (CCK-8 cell viability), A549. To be noted: Homo sapiens, 72 h, read-out: Antiproliferative activity in cancerous cells, A549 (inhibition of cell growth); for inhibition at 3.3 µM: Compound concentration: 3.3 μM; for inhibition at 10 µM: Compound concentration: 10 μM. An outline of the steps:
as §1

Another assay deals with HepG2 (liver cancer). The assay is described as follows: Antiproliferative activity (CCK-8 cell viability), HepG2. To be noted: Homo sapiens, 72 h, read-out: Antiproliferative activity in cancerous cells, HepG2 (inhibition of cell growth); for inhibition at 3.3 µM: Compound concentration: 3.3 μM; for inhibition at 10 µM: Compound concentration: 10 μM. An outline of the steps:
as §1

Assay [3] deals with A431 (epidermoid carcinoma). The experiment in a line: Antiproliferative activity (CCK-8 cell viability), A431. To be noted: Homo sapiens, 72 h; for inhibition at 3.3 µM: A-431, Compound concentration: 3.3 μM; for inhibition at 3.3 µM / inhibition at 10 µM: read-out: Antiproliferative activity in cancerous cells, A431 (inhibition of cell growth); for inhibition at 10 µM: A-431, Compound concentration: 10 μM. A digest of the protocol: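 A431 epidermoid carcinoma cells grown in DMEM with 10% FBS were plated at 2,000-5,000 cells/well in 96-well plates. After attachment they were exposed to compound at 3.3 μM, 10 μM, or 30 μM for 72 h at 37° C. Viability was then assessed by CCK-8 against DMSO vehicle-treated wells.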

In assay [4] the test system is MDA-MB-231 (breast cancer). The assay is described as follows: Antiproliferative activity (CCK-8 cell viability), MDA-MB-231. To be noted: Homo sapiens, 72 h, read-out: Antiproliferative activity in cancerous cells, MDA-MB-231 (inhibition of cell growth); for inhibition at 3.3 µM: Compound concentration: 3.3 μM; for inhibition at 10 µM: Compound concentration: 10 μM. An outline of the steps: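 MDA-MB-231 breast cancer cells, grown in DMEM with 10% FBS, were plated in 96-well plates at 2,000-5,000 cells/well. Once attached, they were exposed to compound and incubated at 37° C. for 72 h. Viability was then measured with CCK-8 (10 μL per well, 4 h at 37° C.) by absorbance at 450 nm, relative to DMSO vehicle wells.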

Some results are limits rather than exact numbers.

Take `CC1=C(CC(=O)O)c2cc(F)ccc2/C1=C\c1ccc(CCCCc2ccc(F)cc2)cc1` [B116, (Z)-2-(5-Fluoro-1-(4-(4-(4-fluorophenyl)butyl)benzylidene)-2-methyl-1H-inden-3-yl)acetic acid]: the inhibition at 3.3 µM with SW480 (colon cancer) was < 30%; in assay [1], 30 to 50%; in the assay on HeLa (cervical cancer) it was ≥ 50%; in assay [2] it was 30 to 50%; in the assay on HepG2 (liver cancer), ≥ 50%; in assay [3], ≥ 50%. For the same molecule, in assay [4], the inhibition at 3.3 µM was < 30%. In addition, the inhibition at 10 µM in the assay on SW480 (colon cancer) is ≥ 50%; in assay [1], 30 to 50%; with HeLa (cervical cancer) it was ≥ 50%; in assay [2], ≥ 50%; in the assay on HepG2 (liver cancer), ≥ 50%; in assay [3], ≥ 50%. Besides, the inhibition at 10 µM in assay [4] is < 30%.

On to `CC1=C(CC(=O)O)c2cc(F)ccc2/C1=C\c1cccc([S+]([O-])c2ccc(F)cc2)c1` (centres unmarked) [C43, (Z)-2-(5-Fluoro-1-(3-((4-fluorophenyl)sulfinyl)benzylidene)-2-methyl-1H-inden-3-yl)acetic acid], for which the inhibition at 3.3 µM in the assay on SW480 (colon cancer) was < 30%; in assay [1] it was < 30%; with HeLa (cervical cancer), < 30%; in assay [2], < 30%; with HepG2 (liver cancer), < 30%; in assay [3] it was 30 to 50%. In addition, the inhibition at 3.3 µM in assay [4] was in the range of 30 to 50%. Also, the inhibition at 10 µM in the assay with SW480 (colon cancer) is < 30%; in assay [1] it was < 30%; with HeLa (cervical cancer), 30 to 50%; in assay [2], 30 to 50%; in the assay on HepG2 (liver cancer) it was < 30%; in assay [3], 30 to 50%. In addition, the inhibition at 10 µM in assay [4] is ≥ 50%. Moreover, the inhibition at 30 µM in assay [3] (A-431, Compound concentration: 30 μM, read-out: Antiproliferative activity in cancerous cells, A431) lay in the range of 30 to 50%.

On to `CCc1ccc2c(c1)C(CC(=O)O)=C(C)/C2=C/c1cccc(Oc2ccc(C(F)(F)F)cc2)c1` [C106, (Z)-2-(5-Ethyl-2-methyl-1-(3-(4-(trifluoromethyl)phenoxy)benzylidene)-1H-inden-3-yl)acetic acid], for which the inhibition at 3.3 µM was ≥ 50% in the assay with SW480 (colon cancer); ≥ 50% in assay [1]; ≥ 50% with HeLa (cervical cancer); ≥ 50% in assay [2]; ≥ 50% in the assay on HepG2 (liver cancer); 30 to 50% in assay [3]. In assay [4], the inhibition at 3.3 µM was ≥ 50%. Also, the inhibition at 10 µM (with SW480 (colon cancer); in assay [1]; with HeLa (cervical cancer); in assay [2]; in the assay on HepG2 (liver cancer); in assay [3]) was ≥ 50% in each case. The inhibition at 10 µM in assay [4] was ≥ 50%.

For `CC1=C(CC(=O)O)c2cc(Cl)ccc2/C1=C\c1cccc(Oc2ccc(C#N)cc2)c1` [C94, (Z)-2-(5-Chloro-1-(3-(4-cyanophenoxy)benzylidene)-2-methyl-1H-inden-3-yl)acetic acid], the inhibition at 3.3 µM in the assay on SW480 (colon cancer) is < 30%; in assay [1] it was 30 to 50%; with HeLa (cervical cancer), < 30%; in assay [2], < 30%; in the assay with HepG2 (liver cancer), < 30%; in assay [3], ≥ 50%. Moreover, the inhibition at 3.3 µM in assay [4] was < 30%. The inhibition at 10 µM in the assay with SW480 (colon cancer) is < 30%; in assay [1], 30 to 50%; with HeLa (cervical cancer), ≥ 50%; in assay [2], ≥ 50%; in the assay with HepG2 (liver cancer), ≥ 50%; in assay [3], ≥ 50%. For the same molecule, the inhibition at 10 µM in assay [4] was in the range of 30 to 50%.

As to `CC1=C(CC(=O)O)c2cc(F)ccc2/C1=C\c1ccc(Oc2ccc(Cl)cc2F)cc1` [C52, (Z)-2-(1-(4-(4-Chloro-2-fluorophenoxy)benzylidene)-5-fluoro-2-methyl-1H-inden-3-yl)acetic acid], the inhibition at 3.3 µM was < 30% with SW480 (colon cancer); ≥ 50% in assay [1]; 30 to 50% in the assay with HeLa (cervical cancer); 30 to 50% in assay [2]; < 30% in the assay on HepG2 (liver cancer); ≥ 50% in assay [3]. Moreover, in assay [4], the inhibition at 3.3 µM lay in the range of 30 to 50%. Besides, the inhibition at 10 µM (in the assay on SW480 (colon cancer); in assay [1]; in the assay on HeLa (cervical cancer); in assay [2]; in the assay on HepG2 (liver cancer); in assay [3]) was ≥ 50% in each case. Further, the inhibition at 10 µM in assay [4] is ≥ 50%.

As for `CC1=C(CC(=O)O)c2cc(F)ccc2/C1=C\c1ccc(Oc2ccc(Cl)c(Cl)c2)cc1` [C49, (Z)-2-(1-(4-(3,4-Dichlorophenoxy)benzylidene)-5-fluoro-2-methyl-1H-inden-3-yl)acetic acid], the inhibition at 3.3 µM is 30 to 50% in the assay with SW480 (colon cancer); < 30% in assay [1]; ≥ 50% in the assay on HeLa (cervical cancer); < 30% in assay [2]; < 30% in the assay with HepG2 (liver cancer); ≥ 50% in assay [3]. For the same molecule, the inhibition at 3.3 µM in assay [4] is < 30%. Further, the inhibition at 10 µM (in the assay with SW480 (colon cancer); in assay [1]; in the assay with HeLa (cervical cancer); in assay [2]; in the assay with HepG2 (liver cancer); in assay [3]) was ≥ 50% in each case. Also, the inhibition at 10 µM in assay [4] was ≥ 50%.

As for `CC1=C(CC(=O)O)c2cc(C)ccc2/C1=C\c1ccc(COCc2ccc(F)cc2)cc1` [B110, (Z)-2-(1-(4-(((4-Fluorobenzyl)oxy)methyl)benzylidene)-2,5-dimethyl-1H-inden-3-yl)acetic acid], the inhibition at 3.3 µM was < 30% in the assay on SW480 (colon cancer); ≥ 50% in assay [1]; < 30% in the assay with HeLa (cervical cancer); 30 to 50% in assay [2]; < 30% with HepG2 (liver cancer); 30 to 50% in assay [3]. Besides, in assay [4], the inhibition at 3.3 µM is ≥ 50%. Besides, the inhibition at 10 µM in the assay on SW480 (colon cancer) is ≥ 50%; in assay [1], ≥ 50%; in the assay with HeLa (cervical cancer) it was ≥ 50%; in assay [2] it was ≥ 50%; in the assay with HepG2 (liver cancer), 30 to 50%; in assay [3] it was ≥ 50%. In assay [4], the inhibition at 10 µM was ≥ 50%.

With `CC1=C(CC(=O)O)c2cc(F)ccc2/C1=C\c1ccc(CCOc2ccc(Cl)cc2)cc1` [B34, (Z)-2-(1-(4-(2-(4-Chlorophenoxy)ethyl)benzylidene)-5-fluoro-2-methyl-1H-inden-3-yl)acetic acid], the inhibition at 3.3 µM with SW480 (colon cancer) is < 30%; in assay [1], 30 to 50%; in the assay on HeLa (cervical cancer), < 30%; in assay [2] it was 30 to 50%; with HepG2 (liver cancer) it was < 30%; in assay [3] it was ≥ 50%. The inhibition at 3.3 µM in assay [4] is < 30%. The inhibition at 10 µM (with SW480 (colon cancer); in assay [1]; in the assay with HeLa (cervical cancer); in assay [2]; with HepG2 (liver cancer); in assay [3]) was ≥ 50% throughout. For the same molecule, the inhibition at 10 µM in assay [4] was < 30%.
